Experimental data taken from publication PMC10610505, “Synthesis and Biological Evaluation of Some New 3-Aryl-2-thioxo-2,3-dihydroquinazolin-4(1H)-ones and 3-Aryl-2-(benzylthio)quinazolin-4(3H)-ones as Antioxidants; COX-2, LDHA, α-Glucosidase and α-Amylase Inhibitors; and Anti-Colon Carcinoma and Apoptosis-Inducing Agents” (Pharmaceuticals, 2023).
“And” between values parts separate entries of the source, which are not always exact repeats. Equal entries are not always repeated. Where two headings read alike, the source gives them in different places.

Experiments:
[1] = target: purified recombinant human LDHA protein (Homo sapiens, UniProt P00338); test: Lactate dehydrogenase A (LDHA) inhibitory assay; format: biochemical; details: for Fold change of LDHA inhibition as compared to 0.1 mg/mL: % inhibition at 0.200 mg/mL divided by % inhibition at 0.100 mg/mL; for inhibition at 100 µg/mL: at 0.1 mg/mL; for inhibition at 100 µg/mL / inhibition at 200 µg/mL: read-out: LDHA mean % inhibition ± SD; for inhibition at 200 µg/mL: at 0.2 mg/mL
Description: The LDHA inhibitory effectiveness was investigated by measuring the amounts of consumed NADH [73]. […] The fluorescence of NADH, which has an excitation wavelength of 340 nm and an emission wavelength of 460 nm, was detected using a spectrofluorometer. […] The LDHA inhibitory efficiency was expressed as an inhibition percentage, which was determined via a comparison with the negative control experiments.

[2] = DPPH radical scavenging assay; format: biochemical; details: for Mean IC50 for scavenging initial DPPH radicals: mean ± SD of three replicates; for IC50: mean ± SD, converted from mg/mL, read-out: Mean IC50 for scavenging initial DPPH radicals (converted)
Source text: In principle, the antioxidant power of a compound in this assay is correlated to its tendency to reduce the stable, purple-colored DPPH radical through a hydrogen atom transfer (HAT) mechanism and/or a single electron transfer mechanism, thereby converting it to the yellow-colored 2,2-diphenyl-1-picrylhydrazine, whereby this reduction is accompanied by a depletion in the amount of the initial DPPH radicals and a change in the absorbance of the test solution accordingly, which can be detected relative to the blank solution at λ = 517 nm.
The antioxidant potencies of all synthesized compounds were investigated using a 1,1 diphenyl-2-picrylhydrazyl (DPPH) radical scavenging assay according to the protocol described by Bersuder et al.. In brief, a 0.5 mL volume of DPPH ethanolic solution was mixed with an equal volume of each sample concentration (i.e., the test compound or butylated hydroxytoluene, BHT, which was used as the reference antioxidant in the positive control experiment), shaken strongly, and incubated at room temperature for 1 h in darkness. The absorbance of the residual DPPH radicals was measured at λ = 519 nm and compared to the negative control (without the test compound or reference antioxidant). The DPPH radical scavenging power was calculated using the following formula: scavenging efficiency (%) = (1 − Acompound/AControl) × 100, where Acompound and Acontrol are the absorbance of the tested compound and the negative control, respectively. […] Additionally, the ± SD values were calculated from three independent triplicate measurements.

[3] = Viability assay (LDH release), HUVEC; format: cell-based, human; details: human
Description: (§1) The samples were diluted in Dulbecco’s Modified Eagle’s Medium, consisting of 10% fetal bovine serum (FBS), added to cells grown and cultured for 24 h in a 5% CO2-humidified incubator at 37 °C. Thereafter, the activity of lactate dehydrogenase released from damaged cells was determined in the collected supernatant aliquots using an ELISA end-point assay (Benchmark Plus, Bio-Rad, CA, USA); 0.1% Triton X-100 in the assay medium and the assay medium only were used as the positive and negative controls, respectively. Cell viability was expressed as a relative percentage of the OD values (at 550 nm) for compound-treated cells (final concentration of 200 µg /mL) and the negative control, which was shown as the mean % ± SD (n = 3). The results of the viability assays for the potential cytotoxic candidates were compared with the % of viable human umbilical vein endothelial cells (HUVEC) at the same concentration. These cells were grown in Dulbecco’s Modified Eagle’s Medium (PAN-Biotech; Barcelona, Spain) containing 10% FBS (Sigma Aldrich; St. Quentin-Fallavier, France), 2 mM Glutamine (Sigma Aldrich), 100 units/mL penicillin and […] streptomycin (Life Technologies; Paisley, UK).

α-amylase = test: In vitro α-amylase (AA) inhibition assay; details: mean ± SD of three replicates; for IC50: read-out: Mean IC50 α-Amylase (AA)
Description: Then, 180 µL of Labtest (the amylase substrate) was added and the samples were incubated for 8 min, followed by measuring the first reaction at 620 nm to obtain (X1). Afterwards, the reaction mixture was incubated for an additional 5 min at 37 °C; then, the second reaction was measured to obtain the final reading (X2). […] The results were expressed as IC50 µg/mL (as well as µM) and were determined from the standard curves.

[4] = tested on: LoVo human colon carcinoma cells; test: Viability assay (LDH release), LoVo; format: cell-based; details: Homo sapiens, LoVo; for IC50: from concentration–response curves; for viability at 200 µg/mL: 48 h, read-out: Mean % of viable cells ± SD, LoVo
Description: (§2) The anticancer activities of all the synthesized compounds were assessed against two human colon carcinoma cell lines, namely LoVo and HCT-116 (Table 6), via the determination of the mean percents of the viable cancerous cells remaining after being incubated with 200 µg/mL of each test compound for 48 h using LDH assay.
as §1

COX-2 = target: T1, COX-2 (Homo sapiens, UniProt P35354); test: COX-2 inhibitory screening assay (Cayman kit); format: biochemical; details: for Increase in COX-2 inhibitory efficiency by duplicating the concentration: % inhibition at 0.200 mg/mL divided by % inhibition at 0.100 mg/mL; for inhibition at 100 µg/mL: at 0.100 mg/mL; for inhibition at 100 µg/mL / inhibition at 200 µg/mL: read-out: COX-2 mean % inhibition ± SD; for inhibition at 200 µg/mL: at 0.200 mg/mL
T1 construct: purchased Cayman Chemical Company 701080
T1 sequence (P35354 18-604): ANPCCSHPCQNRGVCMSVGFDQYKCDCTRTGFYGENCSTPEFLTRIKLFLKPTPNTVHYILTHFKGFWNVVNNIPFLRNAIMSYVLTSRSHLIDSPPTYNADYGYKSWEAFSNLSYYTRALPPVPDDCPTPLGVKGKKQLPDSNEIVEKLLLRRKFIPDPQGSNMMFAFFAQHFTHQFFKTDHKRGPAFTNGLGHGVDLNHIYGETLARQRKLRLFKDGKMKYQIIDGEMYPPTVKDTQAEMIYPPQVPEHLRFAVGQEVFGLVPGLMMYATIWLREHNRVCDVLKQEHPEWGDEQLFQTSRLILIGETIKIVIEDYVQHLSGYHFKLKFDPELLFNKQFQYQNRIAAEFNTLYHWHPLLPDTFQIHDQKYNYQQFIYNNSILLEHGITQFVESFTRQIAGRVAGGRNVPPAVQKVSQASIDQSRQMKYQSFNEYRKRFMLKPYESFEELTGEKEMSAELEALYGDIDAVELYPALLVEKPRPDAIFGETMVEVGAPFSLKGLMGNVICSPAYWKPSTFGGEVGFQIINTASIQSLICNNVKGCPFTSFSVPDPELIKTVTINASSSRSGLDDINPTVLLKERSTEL
Description: Each compound of the two series, 3a–h and 5a–h, was resuspended in 100% DMSO at a final concentration of 10 mg/mL. […] Briefly, 10 µL of the tested compound was added to a mixture of the reaction buffer solution (160 µL of 0.1 M Tris-HCl, pH 8.0, in the presence of 2 mM phenol and 5 mM EDTA), COX-2 (10 µL) and heme (10 µL). After a 10 min incubation at 37 °C, the reaction was started by adding arachidonic acid (10 µL), rapidly mixed and kept at 37 °C for 2 min. PGF2α generated via PGH2 reduction with stannous chloride (30 µL) was incubated at room temperature for 5 min. The PGF2α amount was then determined via an enzyme immunoassay. Prior to incubation with the COX-2 reaction (at room temperature 18 h), the 96-well plate was previously coated with a mouse anti-rabbit monoclonal antibody. Unbound reagents were removed by washing the plate followed by adding Ellman’s reagent to the well. The reaction product displaying a distinct yellow color was measured at 410 nm using a UV microplate reader. The % inhibition was calculated by comparing the PGF2α produced in the compound-treated samples with a control sample, using the following equation: % inhibition is equal to [([PGF2α]control − [PGF2α]sample) /[PGF2α ]control ] × 100. […] The COX-2 inhibitory efficiency was expressed as an inhibition percentage, which was determined via a comparison with the negative control experiments.

[5] = tested on: HCT-116 human colon carcinoma cells; test: Viability assay (LDH release), HCT-116; format: cell-based; details: Homo sapiens; for IC50: HCT-116, from concentration–response curves; for viability at 200 µg/mL: read-out: Mean % of viable cells ± SD, HCT-116
Description: as §2, §1

[6] = human umbilical vein endothelial cells (HUVEC), 200 µg/mL, read-out: Mean % of viable cells ± SD, HUVEC

Row | Compound | Fold change of LDHA inhibition as compared to 0.1 mg/mL [1] | inhibition at 100 µg/mL [1] | inhibition at 200 µg/mL [1] | Mean IC50 for scavenging initial DPPH radicals [2] | IC50 [2] | viability at 200 µg/mL [3, 6] | Mean IC50 α-Amylase (AA) (α-amylase) | IC50 (α-amylase) | IC50 [4] | viability at 200 µg/mL ([4]; 200 µg/mL) | Increase in COX-2 inhibitory efficiency by duplicating the concentration (COX-2) | inhibition at 100 µg/mL (COX-2) | inhibition at 200 µg/mL (COX-2) | IC50 [5] | viability at 200 µg/mL ([5]; HCT-116, 200 µg/mL, 48 h) | viability at 200 µg/mL [3] | viability at 200 µg/mL [4] | viability at 200 µg/mL ([5]; HCT-116, 48 h) | IC50 ([1]; mean ± SD of three replicates) | IC50 (COX-2; mean ± SD of three replicates)
1 | O=c1c2cc(Br)ccc2nc(SCc2ccc(Cl)cc2)n1-c1cccc(C(F)(F)F)c1 [Compound 5b, 2-(4-Chloro-benzylsulfanyl)-6-bromo-3-(3-trifluoromethyl-phenyl)-3H-quinazolin-4-one] | 1.55 fold | 14.5 ± 1.13% | 22.5 ± 1.7% | 167 ± 10 µg/mL | 318 µM | 96.33 ± 0.577% | 162.000 ± 5.568 µg/mL | 308 µM | 161 µg/mL and 306 µM | 37.7 ± 2.52% | 2.11 fold | 9.25 ± 1.77% | 19.5 ± 2.12% | 246 µg/mL and 468 µM | 60.3 ± 2.52% |  |  |  |  | 
2 | COc1cc2[nH]c(=S)n(-c3cccc(C(F)(F)F)c3)c(=O)c2cc1OC [Compound 3c, 6,7-Dimethoxy-2-thioxo-3-(3-trifluoromethyl-phenyl)-2,3-dihydro-1H-quinazolin-4-one] | 0.20 fold | 17.8 ± 1.56% | 30.8 ± 1.77% | 100 ± 14 µg/mL | 262 µM |  | 92.000 ± 3.000 µg/mL | 241 µM | 275 µg/mL and 720 µM |  | 2.05 fold | 9.85 ± 1.63% | 20.2 ± 1.13% | 281 µg/mL and 735 µM |  | 99.67 ± 0.577% | 47.3 ± 2.52% | 65 ± 3.61% |  | 
3 | O=c1c2cc(Br)ccc2[nH]c(=S)n1-c1ccc([N+](=O)[O-])cc1 [Compound 3g, 6-Bromo-3-(4-nitro-phenyl)-2-thioxo-2,3-dihydro-1H-quinazolin-4-one] |  | 68.2 ± 4.6% | 100% | 62.5 ± 2 µg/mL | 165 µM | 98.7 ± 1.16% | 179.333 ± 7.768 µg/mL | 474 µM | 222 µg/mL and 586 µM |  | 1.65 fold | 60 ± 2.83% | 98.9 ± 1.56% | 168 µg/mL and 444 µM |  |  | 55.7 ± 3.06% | 42.3 ± 2.52% | 242 µM | 252 µM
4 | COc1ccc(Br)c(CSc2nc3ccc(Br)cc3c(=O)n2-c2ccc(C(F)(F)F)cc2)c1 [Compound 5e, 2-(2-Bromo-5-methoxybenzylsulfanyl)-6-bromo-3-(4-trifluoromethyl-phenyl)-3H-quinazolin-4-one] | 1.29 fold | 15.2 ± 1.77% | 19.6 ± 2.33% | 225 ± 21 µg/mL | 375 µM |  | 150.333 ± 3.512 µg/mL | 250 µM |  | 64.3 ± 2.08% | 1.67 fold | 31 ± 2.83% | 51.6 ± 4.88% |  | 79.7 ± 2.52% |  |  |  |  | 
5 | O=c1c2cc(Cl)ccc2nc(SCc2ccccc2F)n1-c1cccc(C(F)(F)F)c1 [Compound 5a, 2-(2-Fluoro-benzylsulfanyl)-6-chloro-3-(3-trifluoromethyl-phenyl)-3H-quinazolin-4-one] | 1.62 fold | 24 ± 1.7% | 38.9 ± 1.13% | 80 ± 2 µg/mL | 172 µM |  | 86.667 ± 4.509 µg/mL | 186 µM |  | 90.3 ± 1.53% | 1.85 fold | 34.2 ± 1.7% | 63.1 ± 5.87% |  | 89.7 ± 3.06% |  |  |  |  | 
6 | COc1cc2nc(SCc3ccc(Cl)cc3)n(-c3ccc([N+](=O)[O-])cc3)c(=O)c2cc1OC [Compound 5h, 2-(4-Chloro-benzylsulfanyl)-6,7-dimethoxy-3-(4-nitro-phenyl)-3H-quinazolin-4-one] | 1.42 fold | 15.3 ± 1.2% | 21.8 ± 1.34% | 364 ± 20 µg/mL | 752 µM |  | 117.667 ± 3.055 µg/mL | 243 µM |  | 81.7 ± 3.06% | 2.58 fold | 11.2 ± 0.99% | 28.9 ± 0.283% |  | 91 ± 2.65% |  |  |  |  | 
